In patent US20140011706A1, “SURFACE DISPLAY OF PO[…] METAL PORPHYRIN OR A FLAVIN” (Autodisplay Biotech GMBH, priority 2010, published 2014):
Where two headings read alike, the source gives them in different places.

How the values were obtained:
CYP106A2 [1] = molecular target: T1, CYP106A2 (Priestia megaterium, UniProt Q06069)
CYP106A2 [2] = molecular target: T1, CYP106A2; assay: NADPH consumption of cells displaying CYP106A2 in the presence of imipramine (N-demethylation); assay type: biochemical, E. coli BL21(DE3); set-up: expressed in transfected cells; host or cells: E. coli BL21(DE3) pET-CYP13, induced with 1 mM IPTG; details: imipramine 2.5 μM, NADPH 200 μM, BL21(DE3) pETCYP13 cells OD578=2.5, Adx and AdR added
Description: The cells were prepared as described in Example 1. Redox equivalents are transferred from NADPH via the proteins AdR and Adx to the converting enzyme.
The reaction mixture contained in a total volume of 0.2 mL Hepes buffer (50 mM, 0.05% Tween20, pH 7.4), imipramine (2.5 μM), Adx ([…]), AdR (0.5 μM), NADPH (200 μM) and cells of E. coli BL21(DE3) or BL21(DE3) pETCYP13 corresponding to an OD578=2.5.
The by-product formalin (cf. FIG. 17) has been photometrically identified to be produced by the cells displaying CYP106A2, but not in the control cells (data not shown).

[3] = E. coli BL21(DE3) pETCYP13 whole cells, induced with 1 mM IPTG, Adx and AdR added

Row | SMILES | product formation from substrate (HPLC product peak) (CYP106A2 [1]; BL21(DE3) pETCYP13 whole cells, 1 mM IPTG, without addition of Adx) | product formation from substrate (HPLC product peak) (CYP106A2 [1]; [3]) | amount of product 15β-deoxycorticosterone (HPLC) (CYP106A2 [1]; TolC negative strain JW5503-1 (DE3) pETCYP13 compared with TolC positive BL21(DE3) pETCYP13, IPTG induced) | conversion indicated by NADPH consumption difference versus control cells (CYP106A2 [2])
1 | C[C@]12CC[C@H]3[C@@H](CCC4=CC(=O)CC[C@@]43C)[C@@H]1CC[C@@H]2C(=O)CO [11-deoxycorticosterone] | no product peak | resulted in a product peak | decreased | –
2 | CC(C)C1=CC2=CC[C@@H]3[C@](C)(CCC[C@@]3(C)C(=O)O)[C@H]2CC1 [abietic acid] | – | a product occurred at the expected retention time | – | –
3 | CN(C)CCCN1c2ccccc2CCc2ccccc21 [imipramine] | – | – | – | conversion of imipramine into desipramine
